Data taken from US20240317746A1, “CRYSTALLINE FORMS OF AN AZETIDINE PARP1 INHIBITOR” (XinThera, Inc., priority 2023, published 2024).
Where a name gives a salt, the structure may show the parent alone.

Assay: Exposure of solid to air at about 38% RH and 22° C.
Assay type: physicochemical
Conditions: exposed to air at about 38% RH and 22° C.
Description: 6 g of Compound 1 Form I, about 99 wt % purity, was dissolved in a mixture of about 96 g of DCM and about 20 g MeOH at about 32° C. The solution was polish filtered and then the vessel was rinsed forward with a mixture of about 20 g of DCM and about 3.6 g of MeOH. The filtrate was charged with a solution containing about 2.28 g of L-tartaric acid dissolved in about 6 mL of water at about 22° C. A slurry of solids formed after stirring for about 1 day. The slurry was distilled under vacuum to about 3 V (about 20 mL) at about 40° C., and then cooled to about 22° C. It was charged with about 87 g of acetone, held at about 22° C. for about 1 h, and then cooled to about 0° C. After holding for about 4 h, the slurry was filtered, rinsed with about 24 g of pre-cooled acetone twice. The wet cake was dried at 50° C. with full house vacuum under nitrogen sweep for about 4 days to afford about 7.36 g of L-tartrate Form IV (with a small amount of L-tartrate Form I). […] When exposed to air at about 38% RH and 22° C., a small sample of Compound 1 L-tartrate Form IV completely converted to Compound 1 L-tartrate Form III in less than 20 min.

SMILES: C[C@@H]1[C@@H](Oc2ccc(C(=O)NC3CC3)nc2)CN1Cc1cnc2cc(Cl)c(=O)[nH]c2c1 [L-Tartrate Salt Form IV, 5-(((2R,3S)-1-((7-chloro-6-oxo-5,6-dihydro-1,5-naphthyridin-3-yl)methyl)-2-methylazetidin-3-yl)oxy)-N-cyclopropylpicolinamide]
- time to complete conversion to L-tartrate Form III: less than 20 min
